Measured values: patent US20060147481A1 (priority 2005, published 2006)

Columns and labels:
swine influenza = type: in vivo, swine (finishing hogs)
chronic laminitis = experiment: Horse with chronic laminitis, Ketoprofen in the water; type: in vivo; settings: 1 mg per pound in the water for 2 weeks
Text: An equine client with a horse with chronic laminitis was using phenylbutazone to try to control the inflammation and pain associated with the disease. This product had to be given to the horse daily by the owner. […] The results were very good.

[1] = system: PRRS (Porcine Respiratory and Reproductive Syndrome) Virus; experiment: PRRS virus outbreak in swine nursery, Ketoprofen orally; type: in vivo; settings: orally for 7 days along with same other therapy as controls
Text: A swine client with a 10,000 head nursery was experiencing severe mortality due to a PRRS (Porcine Respiratory and Reproductive Syndrome) Virus outbreak. They had used antibiotics with only partial success and were seeing mortalities as high as 30 percent in the group. […] We also saw less chronic pigs in the treatment group 3% versus 15% in the controls.

platelet cyclo-oxygenase = settings: horse, oral; cited from earlier work
[2] = 1 mg/pound for 3 days orally through drinking water

CC(C(=O)O)c1cccc(C(=O)c2ccccc2)c1 (centres unmarked) [Ketoprofen]
morbidity at the time of the outbreak (swine influenza; [2]): 10% | mortality (swine influenza; [2]): 2.1% | average time to market, less than the control group (swine influenza; 1 mg/pound for 3 days orally through drinking water, 150 pound hogs marketed at 260 pounds): 9 days | follow-up mass medication with antibiotics (swine influenza; two weeks after the outbreak): did not require any mass medication with antibiotics | pain compared with previous treatment (phenylbutazone) (chronic laminitis): less painful | chronic pigs [1]: 3% | mortality [1]: 7%

CN=C1CCN(c2cccc(C(F)(F)F)c2)N1 [BW540C]
duration of inhibition of platelet cyclo-oxygenase (platelet cyclo-oxygenase): 24 h
